The numbers were not newly measured in patent US20180355410A1, “DIAGNOSIS AND TREATMENT OF INFECTIOUS DISEASE” (Cambridge Enterprise Limited, priority 2015, published 2018), which cites them from elsewhere.

Some results are limits rather than exact numbers.

In the data set the test system is Neisseria gonorrhoeae. Particulars: EUCAST clinical breakpoint valid from 1st January 2015.

Regarding `CC[C@H]1OC(=O)[C@H](C)[C@@H](O[C@H]2C[C@@](C)(OC)[C@@H](O)[C@H](C)O2)[C@H](C)[C@@H](O[C@@H]2O[C@H](C)C[C@H](N(C)C)[C@H]2O)[C@](C)(O)C[C@@H](C)CN(C)[C@H](C)[C@@H](O)[C@]1(C)O` [Azithromycin], the “MIC R-breakpoint (resistant)” value is on record as above 0.5 mg/L and the “MIC S-breakpoint (susceptible)” value is on record as at most 0.25 mg/L.
